Laboratory results published in patent US20260109721A1, “IONIZABLE CATIONIC LIPIDS INCORPORATING SILICON: SYNTHESIS AND LNP FORMULATION” (priority 2023, published 2026).

assay: Encapsulation efficiency of loaded LNPs, RiboGreen RNA assay (Method A); type: physicochemical; settings: not given
Description: The synthesized lipids were tested in term of in vitro transfection efficacy and toxicity on HeLa cells. In order to perform the mentioned biological tests, appropriate LNPs had to be formulated from the synthesized lipids. The formulation technique was different in Method A and B. The particle size, polydispersity index (PDI) and zeta potential of resulting LNPs were determined by means of Dynamic Light Scattering technique (DLS). Prior to biological testing the encapsulation efficiency (EE) of the loaded LNPs was determined by using RiboGreen RNA assay. In case of Method A Luc mRNA while in case of Method B GFP mRNA was transfected into the cells. In parallel with the transfection experiments, toxicity of the investigated LNPs was determined, in case of Method A resazurin assay while in case of Method B MTT assay was used. Additionally, the toxicity of the lipids was investigated on HepG2 cells and IC50 values were determined.
• 1. Preparation of sample stock solutions: In the top row of the 96-well plate (Row A in the plate), add 297 μL of TE buffer pH 7.4 (see Table 1) to a single well for each sample plus a single well for a PBS blank using a multichannel pipette.
• 2. Add 3 μL of sample (at 0.5 mg/ml) to these wells for a final volume of 300 μL. Add 3 μL of PBS to the blank well. Pipette to mix. This is your stock solution for each sample. The final RNA concentration of these stock solutions should be approximately 4-7 μg/mL. • 3. mRNA-LNP sample setup: • a. Add 50 μL of TE buffer pH 7.5 to the two wells directly below each sample (Rows B and C in the plate). • b. Add 50 μL of sample stock solution from Row A into the wells in Rows B and C (this assay is run in duplicate. All liquid handling should be done using a multichannel pipette). • c. Add 50 μL of Triton buffer to the wells in Rows D and E (in the plate) below each sample. • d. Add 50 μL of sample stock solution from Row A into the wells in Rows D and E. • 4. RiboGreen RNA standard curve setup: Dilute the RNA standard to produce an RNA stock at a final concentration of 20 μg/mL in TE buffer pH 7.4. The final volume should be 150 μL. Set up a standard curve (in duplicate) as using the RNA stock (20 μg/mL siRNA), TE buffer pH 7.5, and Triton X-100 buffer according the Table 2 and Table 3 below.
• 5. Once samples and standard curve are plated, incubate the plate at 37° C. for 10 min to lyse mRNA-LNP in the presence of Triton X-100 buffer. • 6. Meanwhile, prepare RiboGreen Solution: Sum the total number of sample wells and standard curve wells. Add three to this number, and multiply the total by 100. This is the total volume, in μL, of RiboGreen Solution needed for this assay. In a 15 mL RNAse-free Falcon tube, dilute the RiboGreen Reagent 1:100 into TE buffer pH 7.5 to the total volume calculated. • 7. Addition of RiboGreen Solution and sample readings: Remove a 96-well plate from 37° C. incubator; let it cool to room temperature as RiboGreen binding is somewhat temperature dependent. Add 100 μL of RiboGreen Solution to each well. Pop any air bubbles with a needle. Read using fluorescent plate reader (excitation=480, emission=525). • 8. Sample analysis: Use the data generated by the RiboGreen standard curve to calculate the concentration of mRNA. Transfection Efficiency with Luciferase-mRNA (Method A)

Row | SMILES | EE (%)
1 | CCCCC/C=C\C/C=C\CCCCCCCCO[Si](C)(C)OC(CCCCCCC/C=C\C/C=C\CCCCC)OCCCN(C)C (stereo not shown) [Example 80, (17Z,20Z)-5-((8Z,11Z)-heptadeca-8,11-dien-1-yl)-N,N,7,7-tetramethyl-4,6,8-trioxa-7-silahexacosa-17,20-dien-1-amine] | 83

same assay, conditions: encapsulation efficiency of mRNA-loaded LNP, Method A, RiboGreen

Row | SMILES | EE (%)
2 | CCCCCCCC/C=C\CCCCCCCCOC(=O)C(C)(C)CCC(OCCCCCCCC/C=C\CCCCCCCC)O[Si](C)(C)OCCCCCCN1CCOCC1 (stereo not shown) [Example 95, (Z)-octadec-9-en-1-yl 5-((dimethyl((6-morpholinohexyl)oxy)silyl)oxy)-2,2-dimethyl-5-(((Z)-octadec-9-en-1-yl)oxy)pentanoate] | 88
3 | C#CCN(C)CCCCCCO[Si](C)(C)OC(CCCCCCC/C=C\C/C=C\CCCCC)OCCCCCCCC/C=C\C/C=C\CCCCC (stereo not shown) [Example 67, (20Z,23Z)-10-((8Z,11Z)-heptadeca-8,11-dien-1-yl)-N,8,8-trimethyl-N-(prop-2-yn-1-yl)-7,9,11-trioxa-8-silanonacosa-20,23-dien-1-amine] | 88
4 | CCCCCCCC/C=C\CCCCCCCCOC(CC[C@@H](C)C1CCC2C3CCC4C[C@H](OC)CC[C@]4(C)C3CC[C@@]21C)O[Si](C)(C)OCCCCCCN(CCO)CCO (stereo partly drawn) [Example 51, (Z)-3-(2-hydroxyethyl)-13-((3R)-3-((3R,10S,13R)-3-methoxy-10,13-dimethylhexadecahydro-1H-cyclopenta[a]phenanthren-17-yl)butyl)-11,11-dimethyl-10,12,14-trioxa-3-aza-11-siladotriacont-23-en-1-ol] | 89
5 | CCCCC/C=C\C/C=C\CCCCCCCCOC(CCCCCCC/C=C\C/C=C\CCCCC)O[Si](C)(C)OCCCCCCN1CCCCC1 (stereo not shown) [Example 57, 1-((20Z,23Z)-10-((8Z,11Z)-heptadeca-8,11-dien-1-yl)-8,8-dimethyl-7,9,11-trioxa-8-silanonacosa-20,23-dien-1-yl)piperidine] | 87
6 | CCCCCCCCCCCCCCCCOC(CCCCCCCCCCCCCCC)O[Si](C)(C)OCCCCCCN(CCO)CCO (stereo not shown) [Example 49, 3-(2-hydroxyethyl)-11,11-dimethyl-13-pentadecyl-10,12,14-trioxa-3-aza-11-silatriacontan-1-ol] | 84
7 | CCCCCCCCC(CCCCCC)C(=O)OCCCCCCN(CCCCO)CCCCCCOC(=O)C(CCCCCC)CCCCCCCC (stereo not shown) [ALC-0315, reference compound] | 94
8 | CCCCC/C=C\C/C=C\CCCCCCCCOC(CCCCCCC/C=C\C/C=C\CCCCC)O[Si](C)(C)OCCCCCCN(C)CC(O)CO (stereo not shown) [Example 59, (24Z,27Z)-14-((8Z,11Z)-heptadeca-8,11-dien-1-yl)-4,12,12-trimethyl-11,13,15-trioxa-4-aza-12-silatritriaconta-24,27-diene-1,2-diol] | 88
9 | CCCCC/C=C\C/C=C\CCCCCCCCOC(CCCCCCC/C=C\C/C=C\CCCCC)O[Si](C)(C)OCCCCCCN1CCOCC1 (stereo not shown) [Example 55, 4-((20Z,23Z)-10-((8Z,11Z)-heptadeca-8,11-dien-1-yl)-8,8-dimethyl-7,9,11-trioxa-8-silanonacosa-20,23-dien-1-yl)morpholine] | 21
10 | CCCCCCCC/C=C\CCCCCCCCOC(=O)C(C)(C)CC(OCCCCCCCC/C=C\CCCCCCCC)O[Si](C)(C)OCCCCCCN(CCO)CCN(CCO)CCCCCCO[Si](C)(C)OC(CC(C)(C)C(=O)OCCCCCCCC/C=C\CCCCCCCC)OCCCCCCCC/C=C\CCCCCCCC (stereo not shown) [Example 96, di((Z)-octadec-9-en-1-yl) 14,17-bis(2-hydroxyethyl)-2,2,6,6,25,25,29,29-octamethyl-4,27-bis(((Z)-octadec-9-en-1-yl)oxy)-5,7,24,26-tetraoxa-14,17-diaza-6,25-disilatriacontanedioate] | 89
